According to PMC12055641, “The Study of Antistaphylococcal Potential of Omiganan and Retro-Omiganan Under Flow Conditions” (Probiotics and Antimicrobial Proteins, 2024):
No end group written: not given here.

Columns and labels:
[1] = system: human keratinocytes (HaCaT); type: cell-based; details: 24 h
Method: To evaluate the cytotoxicity of the peptides (IC50), the classic MTT assay on 96-well plates was performed for human keratinocytes (HaCaT) which were acquired from the ATCC. The assay utilizes colorimetric determination of the cell metabolic activity, and the color intensity reflects the number of live cells that can be measured spectrophotometrically. […] DMSO was added to the control cells at a final concentration of 1.0% (v/v), which was related to the maximum concentration of the solvent compounds used in the experiment. After 24 h of incubation at 37 °C (humidified 5% CO2 incubator) with the peptides, a medium containing 1 mg/mL of MTT was added to the wells up to a final concentration of 0.5 mg/mL. Subsequently, the plates were incubated at 37 °C for 4 h. Then, the medium was aspirated, and the formazan product was solubilized with DMSO. The background absorbance at 630 nm was subtracted from that at 570 nm for each well (Epoch, BioTek Instruments, USA). Six replicates were conducted for each concentration. All experiments were repeated at least twice and the resulting IC50 values were calculated with GraFit 7 software (v. 7.0, Erithacus, Berkley, CA, USA).

[2] = system: S. aureus ATCC 12598 biofilm; details: ATCC 12598, reference strain
Text: (§1) Clinical S. aureus strains were collected from patients with atopic dermatitis during their visits to the Outpatient Clinic and hospitalization in the Department of Dermatology, Venereology and Allergology at Medical University of Gdańsk (following the approval from the ethics committee, Approval Number NKBBN/242–477/2014). Reference strains of S. aureus ATCC 25923, S. aureus ATCC 33591, S. aureus ATCC 9144, and S. aureus ATCC 12598 were obtained from the American Type Culture Collection. All the strains were stored at − 80 °C in Roti®-Store cryo vials (Carl Roth GmbH, Karlsruhe, Germany) and before the tests were transferred into fresh Mueller–Hinton Medium (BioMaxima, Lublin, Poland) and incubated for 24 h at 37 °C. Subsequently, each bacterial inoculum was seeded on Mueller–Hinton agar plates (BioMaxima) and incubated again for 24 h. The cultures prepared in this way were used in further antimicrobial assays. Minimum inhibitory concentrations (MICs) were determined according to the Clinical and Laboratory Standards Institute recommendations. […] The experiments were conducted on 96-well microtiter plates, with a final volume of 100 μL. Additionally, in the case of daptomycin, the medium was supplemented with Ca^2+ (50 mg/L). Cell densities were adjusted spectrophotometrically (Multiskan™ GO Microplate Spectrophotometer, Thermo Scientific) at 600 nm. The MICs were taken as the lowest drug concentration at which a visible growth of the microorganisms was inhibited. Minimum biofilm eliminating concentrations (MBECs) were determined on 96-well flat-bottomed microtiter polystyrene plates with resazurin (7-hydroxy-3H-phenoxazin-3-one 10-oxide sodium salt) as a cell viability reagent. To do this, the plates were filled with 100 μL of the initial inoculums of bacteria (0.5 × 10^7 CFU/mL) in the Mueller–Hinton broth and incubated for 24 h at 37 °C. […] After 24 h of incubation, 20 μL of resazurin (4 mg/mL) was added to each well and the MBEC values were read. Minimum biofilm inhibitory concentrations (MBICs) were also determined on 96-well flat-bottomed microtiter polystyrene plates as described previously. To do this, 50 μL of the compounds in the concentration range, diluted MHB, were prepared. Subsequently, the 50 μL of the staphylococcal inoculums were added to reach the same density of bacteria as that in the MBEC assay. After 24 h of incubation at 37 °C, the wells were rinsed three times with PBS and the fresh medium (100 μL) with resazurin (0.6 mg/mL) was added. Then, after 1 h of incubation, MBICs were read. […] All experiments were conducted in triplicate.

S. aureus ATCC 12598 = details: ATCC 12598, reference strain
Text: as §1

[3] = system: S. aureus ATCC 25923 biofilm; details: ATCC 25923, reference strain
Text: as §1

S. aureus ATCC 25923 = details: ATCC 25923, reference strain
Text: as §1

[4] = system: S. aureus ATCC 33591 (MRSA) biofilm; details: ATCC 33591, 24 h
Text: as §1

[5] = system: S. aureus ATCC 33591 (MRSA); details: ATCC 33591, 24 h
Text: as §1

[6] = system: S. aureus ATCC 9144 biofilm; details: ATCC 9144, reference strain
Text: as §1

S. aureus ATCC 9144 = details: ATCC 9144, reference strain
Text: as §1

[7] = system: S. aureus clinical strain 004N (MRSA) biofilm; details: clinical strain 004N biofilm, 24 h
Text: as §1

[8] = system: S. aureus clinical strain 004N (MRSA); details: 24 h
Text: as §1

[9] = system: S. aureus clinical strain 005S biofilm
Text: as §1

[10] = system: S. aureus clinical strain 005S
Text: as §1

[11] = system: S. aureus clinical strain 009S biofilm
Text: as §1

[12] = system: S. aureus clinical strain 009S
Text: as §1

[13] = system: S. aureus clinical strain 015N (MRSA) biofilm; details: clinical strain 015N biofilm, 24 h
Text: as §1

[14] = system: S. aureus clinical strain 015N (MRSA); details: 24 h
Text: as §1

[15] = system: S. aureus clinical strain 030N biofilm
Text: as §1

[16] = system: S. aureus clinical strain 030N
Text: as §1

[17] = system: S. aureus clinical strain 031S biofilm
Text: as §1

[18] = system: S. aureus clinical strain 031S
Text: as §1

[19] = system: S. aureus clinical strain 043SC (MRSA) biofilm; details: clinical strain 043SC biofilm, 24 h
Text: as §1

[20] = system: S. aureus clinical strain 043SC (MRSA); details: 24 h
Text: as §1

[21] = system: S. aureus clinical strain 051N (MRSA) biofilm; details: clinical strain 051N biofilm, 24 h
Text: as §1

[22] = system: S. aureus clinical strain 051N (MRSA); details: 24 h
Text: as §1

[23] = system: S. aureus clinical strain 060S biofilm
Text: as §1

[24] = system: S. aureus clinical strain 060S
Text: as §1

[25] = system: biofilm of reference and clinical strains of staphylococci (S. aureus); details: for mean MBIC (initial values): average over 14 strains, polystyrene 96-well plates, not corrected
Text: as §1

[26] = system: reference and clinical strains of staphylococci (S. aureus); details: 24 h
Text: as §1

S. aureus ATCC 6538 = details: ATCC 6538, reference strain
[27] = system: S. aureus ATCC 6538 biofilm; details: ATCC 6538, reference strain
[28] = system: S. aureus ATCC 6538 biofilm; details: ATCC 6538, reference strain; remark: listed apart in the source

In the case of ILRWPWWPWRRK-NH2 [Omiganan AcO^−], the IC50 [1] is reported as 73.72 µg/mL, the MBEC [2] is reported as 32 µg/mL and the MBIC [2] is reported as 16 µg/mL. The MIC (S. aureus ATCC 12598) was 8 µg/mL, the MBEC [3] was 128 µg/mL and the MBIC [3] was 32 µg/mL. The MIC (S. aureus ATCC 25923) was 16 µg/mL, the MBEC [4] was 64 µg/mL and the MBIC [4] was 32 µg/mL. It also gave an MIC [5] of 16 µg/mL, an MBEC [6] of 16 µg/mL and an MBIC [6] of 16 µg/mL. The MIC (S. aureus ATCC 9144) was 4 µg/mL, the MBEC [7] was 32 µg/mL and the MBIC [7] was 8 µg/mL. It also gave an MIC [8] of 8 µg/mL, an MBEC [9] of 16 µg/mL and an MBIC [9] of 1 µg/mL. It also gave an MIC [10] of 1 µg/mL, an MBEC [11] of 16 µg/mL and an MBIC [11] of 1 µg/mL. It also gave an MIC [12] of 0.5 µg/mL, an MBEC [13] of 32 µg/mL and an MBIC [13] of 16 µg/mL. It also gave an MIC [14] of 8 µg/mL, an MBEC [15] of 32 µg/mL and an MBIC [15] of 16 µg/mL. It also gave an MIC [16] of 8 µg/mL, an MBEC [17] of 16 µg/mL and an MIC [18] of 1 µg/mL. The MBEC [19] was 16 µg/mL, the MBIC [19] was 16 µg/mL and the MIC [20] was 8 µg/mL. The MBEC [21] was 64 µg/mL, the MBIC [21] was 16 µg/mL and the MIC [22] was 8 µg/mL. The MBEC [23] was 16 µg/mL, the MBIC [23] was 1 µg/mL and the MIC [24] was 1 µg/mL. The “mean MBEC (initial values)” value ([25]; 24 h) was 38.86 µg/mL, the “mean MBIC (initial values)” value [25] was 14.54 µg/mL and the “mean MIC (initial values)” value [26] was 6.82 µg/mL. The MIC (S. aureus ATCC 6538) was 8 µg/mL, the MBIC [27] was 32 µg/mL and the MBEC [28] was 64 µg/mL.

For ILRWPWWPWRRK-NH2 [Omiganan Cl^−], the IC50 [1] was 63.99 µg/mL, the MBEC [2] was 64 µg/mL and the MBIC [2] was 32 µg/mL. For the same substance, the MIC (S. aureus ATCC 12598) was 8 µg/mL, the MBEC [3] was 64 µg/mL and the MBIC [3] was 32 µg/mL. For the same substance, the MIC (S. aureus ATCC 25923) was 16 µg/mL, the MBEC [4] was 64 µg/mL and the MBIC [4] was 32 µg/mL. For the same substance, the MIC [5] was 16 µg/mL, the MBEC [6] was 32 µg/mL and the MBIC [6] was 16 µg/mL. It also gave an MIC (S. aureus ATCC 9144) of 4 µg/mL, an MBEC [7] of 64 µg/mL and an MBIC [7] of 16 µg/mL. The MIC [8] was 8 µg/mL, the MBEC [9] was 32 µg/mL and the MBIC [9] was 1 µg/mL. The MIC [10] was 1 µg/mL, the MBEC [11] was 32 µg/mL and the MBIC [11] was 1 µg/mL. The MIC [12] was 0.5 µg/mL, the MBEC [13] was 64 µg/mL and the MBIC [13] was 16 µg/mL. The MIC [14] was 16 µg/mL, the MBEC [15] was 64 µg/mL and the MBIC [15] was 16 µg/mL. It also gave an MIC [16] of 16 µg/mL, an MBEC [17] of 16 µg/mL and an MIC [18] of 1 µg/mL. For the same substance, the MBEC [19] was 32 µg/mL, the MBIC [19] was 16 µg/mL and the MIC [20] was 8 µg/mL. For the same substance, the MBEC [21] was 64 µg/mL, the MBIC [21] was 32 µg/mL and the MIC [22] was 8 µg/mL. It also gave an MBEC [23] of 16 µg/mL, an MBIC [23] of 2 µg/mL and an MIC [24] of 1 µg/mL. The “mean MBEC (corrected values)” value ([25]; 24 h) was 38.86 µg/mL, the “mean MBEC (initial values)” value ([25]; 24 h) was 45.71 µg/mL and the “mean MBIC (initial values)” value [25] was 17.46 µg/mL. For the same substance, the “mean MBIC (corrected values)” value ([25]; biofilm of reference and clinical strains of staphylococci, 24 h) was 14.84 µg/mL, the “mean MIC (corrected values)” value [26] was 6.77 µg/mL and the “mean MIC (initial values)” value [26] was 7.96 µg/mL. For the same substance, the MIC (S. aureus ATCC 6538) was 8 µg/mL, the MBIC [27] was 32 µg/mL and the MBEC [28] was 32 µg/mL.

For KRRWPWWPWRLI-NH2 [Retro-omiganan AcO^−], the IC50 [1] was 23.66 µg/mL, the MBEC [4] was 32 µg/mL and the MBIC [4] was 32 µg/mL. The MIC [5] was 16 µg/mL, the MBEC [7] was 32 µg/mL and the MBIC [7] was 16 µg/mL. For the same substance, the MIC [8] was 16 µg/mL, the MBEC [13] was 32 µg/mL and the MBIC [13] was 16 µg/mL. For the same substance, the MIC [14] was 16 µg/mL, the MBEC [19] was 32 µg/mL and the MBIC [19] was 16 µg/mL. It also gave an MIC [20] of 16 µg/mL, an MBEC [21] of 64 µg/mL and an MBIC [21] of 32 µg/mL. The MIC [22] was 16 µg/mL, the “mean MBEC (initial values)” value ([25]; 24 h) was 32.00 µg/mL and the “mean MIC (initial values)” value [26] was 10.00 µg/mL.
